Structures are written as SMILES. pIC50: −log10 of the molar value. Bounds are passed on as bounds.

This experiment has as its target T1, JMJD2A (Homo sapiens, UniProt O75164).
T1 construct: pNIC28-Bsa4 JMJD2A (encompassing residues 1-359); inferred from Ni-NTA purification and the pNIC28-Bsa4 vector; made in house; host or cells: E. coli BL21 (DE3) Rosetta T1R
T1 sequence (O75164 1-359): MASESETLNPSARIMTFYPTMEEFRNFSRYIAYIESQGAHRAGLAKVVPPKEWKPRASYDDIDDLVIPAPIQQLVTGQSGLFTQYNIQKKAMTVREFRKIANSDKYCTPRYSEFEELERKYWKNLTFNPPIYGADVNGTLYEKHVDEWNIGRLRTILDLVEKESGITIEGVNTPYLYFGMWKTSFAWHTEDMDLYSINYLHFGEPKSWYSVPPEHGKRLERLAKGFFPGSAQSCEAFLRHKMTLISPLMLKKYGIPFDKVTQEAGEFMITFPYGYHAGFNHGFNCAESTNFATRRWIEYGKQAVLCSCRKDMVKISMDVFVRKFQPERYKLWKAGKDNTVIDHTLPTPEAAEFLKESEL
Kind of experiment: MALDI-based inhibition assay for JMJD2A. The class given is biochemical. Particulars: ARK(me3)STGGK substrate. The protocol:
min, before 1:1 quenching with methanol. 1 uL of the diluted assay mixture was then mixed with 1 uL of α-cyano-4-hydroxycinnamic acid (CHCA, the MALDI-TOF-MS matrix, Sigma-Aldrich) and spotted onto the MALDI-TOF-MS plate before analysis. The CHCA matrix consisted of 10 mg/mL CHCA in 50% MeCN/Milli-Q H2O containing 0.1% TFA. The percentage inhibition was estimated based on the relative intensities of the unhydroxylated substrate and the hydroxylated product observed in the mass spectra. For IC50 determination, eight different concentrations of inhibitors were used (0, 1, 3, 10, 30, 100, 300, 1000 µM); the IC50s were then calculated from the variation in percentage hydroxylation at different inhibitor concentrations, using nonlinear regression, with normalized dose-response fit on […]
MALDI-based inhibition assay for JMJD2A
The assay was performed as previously reported, with modifications.[20] A peptide substrate with the sequence ARK(me3)STGGK (GL Biochem (Shanghai) Ltd) was used in this inhibition assay. The assay was performed in triplicate for each inhibitor, in a final reaction volume of 25 µL. […]
IC50s were then calculated from the variation in percentage demethylation at different

In the case of `O=C(O)/C=C/C(=O)NNC(=O)c1cnccc1Cc1ccccc1` [Compound 12], the pIC50 (in general, the IC50 on a negative log10 scale, so that one unit is a factor of ten) is under 3.52.

(Values after article PMC5424463, “A strategy based on nucleotide specificity leads to a subfamily-selective and cell-active inhibitor of N ^6-methyladenosine demethylase FTO” (Chemical Science, 2014).)
